Patent US6867320B2, “Substituted phenylalkanoic acid derivatives and use thereof” (Asahi Kasei Pharma Corporation, priority 2002, dated 2005)

Experiments:
[1] = test system: zymosan-stimulated footpad edema; experiment: Mouse zymosan-stimulated footpad edema reaction; assay type: in vivo; settings: ICR female mice, oral 0.1 to 500 mg/kg, compared with positive control group
Protocol: 3. Suppressing Effect on Mouse Zymosan-stimulated Footpad Edema Reaction A suppressing effect on footpad edema caused by zymosan as an inflammatory stimulant was studied by the following method. Groups of ICR female mice (6- to 7-week old) each consisting of eight mice were used for the test. A test compound was suspended or dissolved in purified water containing 0.5% methylcellulose and orally administered to the test animals at 0.1 to 500 mg/0.2 ml/kg. To the control group, purified water containing 0.5% methylcellulose was administered in a similar manner, which was not added with a test compound. One hour after the administration of the test compound, 0.02 ml of a suspension of zymosan suspended in physiological saline (Otsuka Pharmaceutical) at 1 mg/ml was subcutaneously administered to right hind leg footpad of each mouse. One and two hours after the administration of the zymosan suspension, volume of the right hind leg footpad was measured by using an apparatus for measuring a volume of mouse hind leg footpad edema (Unicom). A difference of the volume of footpad measured above and the footpad volume before the administration of the test compound measured beforehand was regarded as a volume of the edema. For the volume of the edema at 1 hour or 2 hours after the zymosan administration, a graph was prepared by indicating time in abscissa and the edema volume in ordinate, and an edema volume AUC (area under the curve) was obtained up to 2 hours by calculation using the following equation. Edema volume AUC (1·hour)=1/2×1×A+1×(A+B)/2 • A: Edema volume 1 hour after zymosan administration • B: Edema volume 2 hour after zymosan administration A suppression ratio on edema of test compound was obtained by calculation using the following equation. Edema suppression ratio (%)=[1−B/A]×100 • A: Edema volume AUC of positive control • B: Edema volume AUC of test compound administered group (2) Measurement Results

[2] = test system: PGD2 production from IgE-stimulated RBL-2H3 cells; experiment: Suppressing action on PGD2 production from IgE-stimulated RBL-2H3 cells; assay type: cell-based; settings: Rattus norvegicus, 10 min, IgE/DNP-BSA stimulated RBL-2H3 cells, read-out: PGD2 production suppression ratio
Text: (§1) 2. Suppressing Action on PGD2 and LTB4 Production from IgE-Stimulated RBL-2H3 Cells
(§2) Suppressing action on PGD2 and LTB4 production caused by IgE as an allergic stimulant was investigated by the following method. Cells of RBL-2H3, which is a rat mastocytoma cell line (purchased from ATCC), were suspended in DEMEM medium (GIBCO) containing 10% fetal bovine serum (BioFluid), inoculated to each well of 48-well culture plate at a density of 2×10^4 cells/well and cultured overnight. Then, IgE antiserum directed to dinitrophenylated BSA (henceforth DNP-BSA) was further added to each well, and the cells were cultured for 30 minutes. Then, the medium was changed to DEMEM medium containing 0.5% fetal bovine serum, a test compound was added with each well, and DNP-BSA was further added at a final concentration of 100 ng/ml as a stimulant. Ten minutes after the stimulant was added, the culture supernatant was collected, and the PGD2 concentration and LTB4 concentration in the culture supernatant were measured by using EIA kit (CAYMAN). By using a well which was not added with the stimulant as a negative control and a well which was added only with the stimulant as a positive control, suppressing ratios on mediator production were calculated from the production amounts of the mediators in the well added with the test compound using the following equation. PGD2 or LTB4 production suppression ratio=[1−(C−B)/(A−B)]×100 • A: PGD2 or LTB4 production amount of positive control • B: PGD2 or LTB4 production amount of negative control • C: PGD2 or LTB4 production amount in well added with test compound
(§3) Further, as control compounds for comparison, reference compound (1), 3-(2-cyclohexylmethyloxy-1,1′-biphenyl-5-yl)propionic acid described in WO99/19291, reference compounds (2) and (3), [2-(5,6,7,8-tetrahydro-5,5,8,8-tetramethyl-2-naphthalenyl)methyloxy-1,1′-biphenyl-5-yl]carboxylic acid [reference compound (2)] and 3-[3′-carboxy-2-(5,6,7,8-tetrahydro-5,5,8,8-tetramethyl-2naphthalenyl)methyloxy-1,1′-biphenyl-6-yl]propionic acid [reference compound (3)] described in U.S. Pat. No. 5,391,817 and Japanese Patent Unexamined Publication (Kokai) No. 7-22399, respectively, were used, and activities thereof were similarly measured.

[3] = test system: LTB4 production from IgE-stimulated RBL-2H3 cells; experiment: Suppressing action on LTB4 production from IgE-stimulated RBL-2H3 cells; assay type: cell-based; settings: Rattus norvegicus, 10 min, IgE/DNP-BSA stimulated RBL-2H3 cells, read-out: LTB4 production suppression ratio
Text: as §1, §2, §3

[4] = test system: PGE2 production from IL-1β-stimulated MG-63 cells; experiment: Suppressing action on PGE2 production from IL-1β-stimulated MG-63 cells; assay type: cell-based; settings: Homo sapiens, IL-1β 1 ng/ml, 18 hours, read-out: PGE2 production suppression ratio
Procedure, shortened: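 PGE2 in 18 h supernatants was quantified by EIA and expressed as % suppression relative to IL-1β-only and unstimulated controls. Cells were the MG-63 osteosarcoma line, plated at 2×10^4/well, given compound in 0.5% FBS EMEM, then 1 ng/ml IL-1β final.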

SMILES	suppression of footpad edema caused by zymosan [1]	inhibition at 0.4 µM [2]	inhibition at 0.4 µM [3]	inhibition at 0.4 µM [4]
O=C(O)CCc1ccc(OCC2CCCC2)c(-c2ccc3c(O)cccc3c2)c1 [Compound 010, 3-[4-cyclopentylmethyloxy-3-(5-hydroxynaphthalen-2-yl)phenyl]propionic acid]	suppressed footpad edema	≥ 50%	≥ 50%	≥ 50%
O=C(O)CCc1ccc(OCC2CCCCC2)c(-c2ccc3ccccc3c2)c1 [Compound 066, 3-[4-cyclohexylmethyloxy-3-(naphthalen-2-yl)phenyl]propionic acid]	suppressed footpad edema	≥ 50%	≥ 50%	≥ 50%
Nc1cc(CCC(=O)O)cc(-c2ccc3ccccc3c2)c1OCC1CCCC1 [Compound 095, 3-[3-amino-4-cyclopentylmethyloxy-5-(naphthalen-2-yl)phenyl]propionic acid]	suppressed footpad edema	≥ 50%	≥ 50%	≥ 50%
COC(=O)CCc1ccc(OCC2CCCC2)c(-c2ccc3[nH]ccc3c2)c1 [Compound 099, methyl 3-[4-cyclopentylmethyloxy-3-(1H-indol-5-yl)phenyl]propionate]	suppressed footpad edema	≥ 50%	≥ 50%	≥ 50%
O=C(O)CCc1ccc(OC2CCCC2)c(-c2ccc3[nH]ccc3c2)c1 [Compound 102, 3-[4-cyclopentyloxy-3-(1H-indol-5-yl)phenyl]propionic acid]	suppressed footpad edema	≥ 50%	≥ 50%	≥ 50%
O=C(O)CCc1ccc(OC2CCCCC2)c(-c2ccc3[nH]ccc3c2)c1 [Compound 104, 3-[4-cyclohexyloxy-3-(1H-indol-5-yl)phenyl]propionic acid]	suppressed footpad edema	≥ 50%	≥ 50%	≥ 50%
Cn1ccc2cc(-c3cc(CCC(=O)O)ccc3OC3CCCCC3)ccc21 [Compound 110, 3-[4-cyclohexyloxy-3-(1-methyl-1H-indol-5-yl)phenyl]propionic acid]	suppressed footpad edema	≥ 50%	≥ 50%	≥ 50%
O=C(O)CCc1ccc(OCc2ccccc2F)c(-c2ccc3[nH]ccc3c2)c1 [Compound 142, 3-[4-(2-fluorophenylmethyloxy)-3-(1H-indol-5-yl)phenyl]propionic acid]	suppressed footpad edema	≥ 50%	≥ 50%	≥ 50%
O=C(O)CCc1ccc(OCc2ccccc2Cl)c(-c2ccc3[nH]ccc3c2)c1 [Compound 148, 3-[4-(2-chlorophenylmethyloxy)-3-(1H-indol-5-yl)phenyl]propionic acid]	suppressed footpad edema	≥ 50%	≥ 50%	≥ 50%
O=C(O)CCc1ccc(OCc2cccc(Cl)c2)c(-c2ccc3[nH]ccc3c2)c1 [Compound 150, 3-[4-(3-chlorophenylmethyloxy)-3-(1H-indol-5-yl)phenyl]propionic acid]	suppressed footpad edema	≥ 50%	≥ 50%	≥ 50%
O=C(O)CCc1ccc(OCc2ccc(Cl)cc2)c(-c2ccc3[nH]ccc3c2)c1 [Compound 152, 3-[4-(4-chlorophenylmethyloxy)-3-(1H-indol-5-yl)phenyl]propionic acid]	suppressed footpad edema	≥ 50%	≥ 50%	≥ 50%
O=C(O)CCc1ccc(OCc2ccccc2Br)c(-c2ccc3[nH]ccc3c2)c1 [Compound 154, 3-[4-(2-bromophenylmethyloxy)-3-(1H-indol-5-yl)phenyl]propionic acid]	suppressed footpad edema	≥ 50%	≥ 50%	≥ 50%
O=C(O)CCc1ccc(OCc2ccc(-c3ccccc3)cc2)c(-c2ccc3[nH]ccc3c2)c1 [Compound 179, 3-{4-[(biphenyl-4-yl)methyloxy]-3-(1H-indol-5-yl)phenyl}propionic acid]	suppressed footpad edema	≥ 50%	≥ 50%	≥ 50%
Cc1ccc(CCOc2ccc(CCC(=O)O)cc2-c2ccc3[nH]ccc3c2)cc1 [Compound 204, 3-{3-(1H-indol-5-yl)-4-[2-(4-methylphenyl)ethyloxy]phenyl}propionic acid]	suppressed footpad edema	≥ 50%	≥ 50%	≥ 50%
Cn1ccc2cc(-c3cc(CCC(=O)O)ccc3OCC3CCCC3)ccc21 [Compound 235, 3-[4-cyclopentylmethyloxy-3-(1-methyl-1H-indol-5-yl)phenyl]propionic acid]	suppressed footpad edema	≥ 50%	≥ 50%	≥ 50%
CCn1ccc2cc(-c3cc(CCC(=O)O)ccc3OC3CCCC3)ccc21 [Compound 246, 3-[4-cyclopentyloxy-3-(1-ethyl-1H-indol-5-yl)phenyl]propionic acid]	suppressed footpad edema	≥ 50%	≥ 50%	≥ 50%
Nc1nc2ccc(-c3cc(CCC(=O)O)ccc3OC3CCCCC3)cc2s1 [Compound 295, 3-[3-(2-aminobenzothiazol-6-yl)-4-cyclohexyloxyphenyl]propionic acid]	suppressed footpad edema	≥ 50%	≥ 50%	≥ 50%
